Assay results published in patent US7361660B2, “Chemical compounds” (AstraZeneca AB, priority 2001, dated 2008).

Tested on: peripheral blood mononuclear cell (PBMC)
Assay: Inhibition of PMA/ionomycin-stimulated peripheral blood mononuclear cell proliferation
Assay type: cell-based
Settings: human PBMC from a single donor, PMA 0.5 ng/ml and ionomycin 500 ng/ml, 72 hours, 3H-Thymidine incorporation; read-out: IA50 (the source's name)
Method: The ability of compounds which can inhibit PMA/ionomycin-stimulated peripheral blood mononuclear cell proliferation can be assessed, for example using the procedure set out below:
Inhibition of PMA/Ionomycin-Stimulated Peripheral Blood Mononuclear Cell Proliferation
The assay for Phorbol 12-myristate 13-Acetate (PMA)/ionomycin-stimulated peripheral blood mononuclear cell (PBMC) proliferation was performed in 96-well flat bottomed microtitre plates. Compounds were prepared as 10 mM stock solutions in dimethyl sulfoxide. A 50-fold dilution of this was prepared in RPMI culture medium and serial diutions were prepared from this solution. 10 μl of the 50-fold diluted stock, or dilutions of it, were added to the well to give concentrations in the assay starting at […] and going down. Into each well was placed 1×10^5 PBMC, prepared from human peripheral blood from a single donor, in RPMI1640 medium supplemented with 10% human serum, 2 mM glutamine and penicillin/streptomycin. PMA (0.5 ng/ml final concentration) and ionomycin (500 ng/ml final concentration) were added to these cells in supplemented RPMI1640 medium (as above) so that the final volume of the assay was 0.2 ml. […] The level of radioactivity incorporated by the cells was then determined and this is a measure of proliferation.

| SMILES | IC50 [µM] |
| --- | --- |
| CON(C)C(=O)c1c(Cc2ccnc3ccccc23)sc2c1c(=O)n(C)c(=O)n2CC(C)C [Example 2, 1,2,3,4-Tetrahydro-N-methoxy-N,3-dimethyl-1-(2-methylpropyl)-2,4-dioxo-6-(4-quinolinylmethyl)thieno[2,3-d]pyrimidine-5-carboxamide] | 0.00588 |
| CCCn1c(=O)n(C)c(=O)c2c(C(=O)N(C)OC)c(Cn3c(C)nc(Cl)c3Cl)sc21 [Example 7, 6-[4,5-Dichloro-2-methyl-1H-imidazol-1-ylmethyl]-1,2,3,4-tetrahydro-N-methoxy-N,3-dimethyl-2,4-dioxo-1-propyl-thieno[2,3-d]pyrimidine-5-carboxamide] | 0.0346 |
